Experiment [1] relates to Staphylococcus aureus S13E. In kind it is cell-based. The procedure:
(§1) The MIC's were determined using a standard broth micro-dilution assay.

In experiment [2] the test system is Staphylococcus aureus SA1199B. Format: cell-based. The procedure: as §1
Experiment [3] concerns Entercoccus faecium 180-1. Description: broth micro-dilution MIC. Format: cell-based. The method, then:
as §1

Experiment [4] concerns Entercoccus faecium 276. The experiment in a line: broth micro-dilution MIC. In kind it is cell-based. The method, then: as §1
For orientation: In broth dilution the organism is exposed to a series of concentrations in liquid medium.

Experiment [5] concerns Staphylococcus aureus 446. The experiment in a line: broth micro-dilution MIC. Format: cell-based. The method, then:
as §1

The subject of experiment [6] is Staphylococcus aureus 447. The experiment in a line: broth micro-dilution MIC. In kind it is cell-based. The method, then:
as §1

Experiment [7] has as its system Staphylococcus aureus 489. Description: broth micro-dilution MIC. In kind it is cell-based. The method, then:
as §1

For experiment [8], the system named is Staphylococcus aureus 491. Description: broth micro-dilution MIC. Format: cell-based. The procedure:
as §1

Experiment [9] deals with Staphylococcus aureus SA1199A. Description: broth micro-dilution MIC. Format: cell-based. The method, then:
as §1

The subject of experiment [10] is Staphylococcus aureus SA1199. Description: broth micro-dilution MIC. Format: cell-based. The procedure: as §1
Experiment [11] concerns Staphylococcus aureus X400. The experiment in a line: broth micro-dilution MIC. Format: cell-based. The method, then:
as §1

Experiment [12] relates to Staphylococcus aureus X778. The experiment in a line: broth micro-dilution MIC. In kind it is cell-based. The method, then: as §1
Experiment [13] deals with Streptococcus pyogenes C203. Description: broth micro-dilution MIC. In kind it is cell-based. The method, then: as §1
Experiment [14] has as its system Entercoccus faecium 180. Description: broth micro-dilution MIC. In kind it is cell-based. As to conditions: Entercoccus faecium 180. The procedure:
(§2) The formula I compounds have in vitro and in vivo activity against Gram-positive pathogenic bacteria. The MIC's were determined using a standard broth micro-dilution assay.

Experiment [15] deals with Entercoccus faecium 2041. The experiment in a line: broth micro-dilution MIC. In kind it is cell-based. The settings on record: Entercoccus faecium 2041. The method, then:
as §2

Experiment [16] concerns Enterococcus gallinarum 245. The experiment in a line: broth micro-dilution MIC. Format: cell-based. The settings on record: Enterococcus gallinarum 245. The method, then:
as §2

In experiment [17] the test system is Staphylococcus epidermidis 270. Description: broth micro-dilution MIC. Format: cell-based. The procedure: as §2
Experiment [18] has as its system Staphylococcus haemolyticus 105. Description: broth micro-dilution MIC. Format: cell-based. The method, then: as §2
The subject of experiment [19] is Staphylococcus haemolyticus 415. Description: broth micro-dilution MIC. In kind it is cell-based. The procedure:
as §2

Experiment [20] deals with Streptococcus pneumoniae P1. The experiment in a line: broth micro-dilution MIC. In kind it is cell-based. The method, then:
as §2

Experiment [21] deals with vancomycin-resistant enterococci. Description: broth micro-dilution, mean geometric MIC. Format: cell-based, Enterococcus faecium and Enterococcus faecalis. The settings on record: enterococci, 24-hour incubation.
Experiment [22] concerns vancomycin-susceptible enterococci. The experiment in a line: broth micro-dilution, mean geometric MIC. In kind it is cell-based, Enterococcus faecium and Enterococcus faecalis. As to conditions: enterococci, 24-hour incubation.

In brackets after ≈: the same amount, converted by molar mass.

For `CNC(CC(C)C)C(=O)NC1C(=O)NC(CC(N)=O)C(=O)NC2C(=O)NC3C(=O)NC(C(=O)NC(C(=O)O)c4cc(O)cc(O)c4-c4cc3ccc4O)C(OC3CC(C)(N)C(O)C(C)O3)c3ccc(c(Cl)c3)Oc3cc2cc(c3OC2OC(CO)C(O)C(O)C2OC2CC(C)(NCc3ccc4c(c3)CCc3ccccc3-4)C(O)C(C)O2)Oc2ccc(cc2Cl)C1O` (stereo not shown) [Compound 220], the minimal inhibitory concentration (MIC) (commonly the lowest concentration that inhibits growth of the organism) was 0.5 µg/mL (≈ 0.28 µM) in experiment [1]; 0.5 µg/mL (≈ 0.28 µM) in [2]; no more than 0.06 µg/mL in experiment [3]; 0.125 µg/mL (≈ 0.07 µM) in experiment [4]; 1 µg/mL (≈ 0.56 µM) in experiment [5]; 0.5 µg/mL (≈ 0.28 µM) in experiment [6]. The MIC is 0.5 µg/mL (≈ 0.28 µM) in experiment [7]; no more than 0.06 µg/mL in experiment [8]; no more than 0.06 µg/mL in experiment [9]; 1 µg/mL (≈ 0.56 µM) in [10]; 0.5 µg/mL (≈ 0.28 µM) in experiment [11]; 0.5 µg/mL (≈ 0.28 µM) in experiment [12]. In addition, the MIC in experiment [13] was no more than 0.06 µg/mL; in experiment [14] it was 0.125 µg/mL (≈ 0.07 µM); in [15], no more than 0.06 µg/mL; in [16], 0.5 µg/mL (≈ 0.28 µM); in [17] it was 1 µg/mL (≈ 0.56 µM); in [18] it was 0.5 µg/mL (≈ 0.28 µM). The values for the minimal inhibitory concentration (MIC) in [19] and in experiment [20] were 0.5 µg/mL (≈ 0.28 µM) and no more than 0.06 µg/mL, respectively. In addition, the “mean geometric MIC, Vancomycin Resistant Strains” value in experiment [21] was 0.71 µg/mL. Further, the “mean geometric MIC, Vancomycin Sensitive Strains” value in experiment [22] stood at 0.05 µg/mL.

Consider `CNC(CC(C)C)C(=O)NC1C(=O)NC(CC(N)=O)C(=O)NC2C(=O)NC3C(=O)NC(C(=O)NC(C(=O)O)c4cc(O)cc(O)c4-c4cc3ccc4O)C(OC3CC(C)(N)C(O)C(C)O3)c3ccc(c(Cl)c3)Oc3cc2cc(c3OC2OC(CO)C(O)C(O)C2OC2CC(C)(NCc3cc4ccccc4c4ccccc34)C(O)C(C)O2)Oc2ccc(cc2Cl)C1O` (stereo not shown) [Compound 11], for which the minimum inhibitory concentration (MIC) in [1] is 0.5 µg/mL (≈ 0.28 µM); in experiment [2], 2 µg/mL (≈ 1.12 µM); in experiment [3], no more than 0.06 µg/mL; in [4], 1 µg/mL (≈ 0.561 µM); in experiment [5], 4 µg/mL (≈ 2.24 µM); in experiment [6], 4 µg/mL (≈ 2.24 µM). The MIC was 1 µg/mL (≈ 0.561 µM) in experiment [7]; 1 µg/mL (≈ 0.561 µM) in experiment [8]; no more than 0.06 µg/mL in [9]; 2 µg/mL (≈ 1.12 µM) in experiment [10]; 0.5 µg/mL (≈ 0.28 µM) in [11]; 0.25 µg/mL (≈ 0.14 µM) in experiment [12]. Moreover, the minimum inhibitory concentration (MIC) in experiment [13] is no more than 0.06 µg/mL; in [14], 1 µg/mL (≈ 0.561 µM); in experiment [15] it was 0.5 µg/mL (≈ 0.28 µM); in experiment [16] it was no more than 0.06 µg/mL; in [17] it was 2 µg/mL (≈ 1.12 µM); in experiment [18], 4 µg/mL (≈ 2.24 µM). Further, the MIC in [19] is 2 µg/mL (≈ 1.12 µM); in experiment [20] it was no more than 0.06 µg/mL. The “mean geometric MIC, Vancomycin Sensitive Strains” value in experiment [22] stood at 0.22 µg/mL.

Take `CNC(CC(C)C)C(=O)NC1C(=O)NC(CC(N)=O)C(=O)NC2C(=O)NC3C(=O)NC(C(=O)NC(C(=O)O)c4cc(O)cc(O)c4-c4cc3ccc4O)C(OC3CC(C)(N)C(O)C(C)O3)c3ccc(c(Cl)c3)Oc3cc2cc(c3OC2OC(CO)C(O)C(O)C2OC2CC(C)(NCc3ccc4c(c3)OCCO4)C(O)C(C)O2)Oc2ccc(cc2Cl)C1O` (stereo not shown) [Compound 56]: the MIC was 0.125 µg/mL (≈ 0.0718 µM) in experiment [1]; 0.5 µg/mL (≈ 0.287 µM) in experiment [2]; no more than 0.06 µg/mL in experiment [3]; 0.25 µg/mL (≈ 0.144 µM) in [4]; 0.5 µg/mL (≈ 0.287 µM) in experiment [5]; 2 µg/mL (≈ 1.15 µM) in experiment [6]. Further, the MIC in [7] was 1 µg/mL (≈ 0.575 µM); in experiment [8], 0.5 µg/mL (≈ 0.287 µM); in experiment [9] it was no more than 0.06 µg/mL; in [10], 0.125 µg/mL (≈ 0.0718 µM); in experiment [11], no more than 0.06 µg/mL; in experiment [12] it was 0.125 µg/mL (≈ 0.0718 µM). The minimum inhibitory concentration (MIC) in experiment [13] was no more than 0.06 µg/mL; in experiment [14], 2 µg/mL (≈ 1.15 µM); in [15], 0.25 µg/mL (≈ 0.144 µM); in experiment [16], 16 µg/mL (≈ 9.19 µM); in [17] it was 1 µg/mL (≈ 0.575 µM); in experiment [18] it was 4 µg/mL (≈ 2.3 µM). For the same compound, the figures for the MIC in experiment [19] and in experiment [20] were 16 µg/mL (≈ 9.19 µM) and no more than 0.06 µg/mL, respectively. In addition, the “mean geometric MIC, Vancomycin Resistant Strains” value in [21] amounted to 19 µg/mL.

The values are drawn from patent US5840684A, “Glycopeptide antibiotic derivatives” (Eli Lilly and Company, priority 1995, dated 1998).
